Laboratory results as given in paper PMC5309245, “Discovery and Characterization of Diazenylaryl Sulfonic Acids as Inhibitors of Viral and Bacterial Neuraminidases” (Frontiers in Microbiology, 2017).

Assays:
[1] = molecular target: IAV WSN/33 NA-wt (whole virus) (Influenza A virus, UniProt P03470); experiment: biochemical; design: species or system influenza A virus A/WSN/1933 (H1N1); details: for IC50: NA inhibition using FL assay IC50, IAV WSN/33
[2] = system: influenza A virus HK/68; experiment: microbe, parasite or virus in culture; format: cell-based, influenza A virus A/Hong Kong/68 (H3N2)
[3] = molecular target: IAV HK/68 NA (whole virus) (Influenza A virus, UniProt Q91MA2); experiment: biochemical; design: species or system influenza A virus A/Hong Kong/68 (H3N2); details: for IC50: NA inhibition using FL assay IC50, IAV HK/68
Sequence of IAV HK/68 NA (whole virus) (Q91MA2 whole entry, looked up): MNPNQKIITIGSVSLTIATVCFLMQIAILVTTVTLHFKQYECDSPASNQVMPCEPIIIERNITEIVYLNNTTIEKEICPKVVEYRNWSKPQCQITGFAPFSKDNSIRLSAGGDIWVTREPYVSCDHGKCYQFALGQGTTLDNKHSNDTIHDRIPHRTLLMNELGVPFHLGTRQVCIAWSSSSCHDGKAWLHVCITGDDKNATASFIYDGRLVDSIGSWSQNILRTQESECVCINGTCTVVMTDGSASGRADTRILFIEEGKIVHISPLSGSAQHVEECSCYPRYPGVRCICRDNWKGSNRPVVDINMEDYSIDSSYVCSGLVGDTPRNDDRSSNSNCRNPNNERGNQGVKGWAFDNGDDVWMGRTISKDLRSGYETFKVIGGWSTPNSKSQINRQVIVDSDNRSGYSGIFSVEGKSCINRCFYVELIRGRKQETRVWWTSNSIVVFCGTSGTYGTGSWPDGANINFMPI

[4] = system: influenza A virus 8178/09; experiment: microbe, parasite or virus in culture; format: cell-based, influenza A virus A/Jena/8178/2009 (H1N1)
[5] = system: S. pneumoniae DSM20566 biofilm; experiment: Biofilm inhibition assay; format: cell-based, Streptococcus pneumoniae DSM20566
[6] = system: human erythrocytes; format: cell-based; details: human erythrocytes, 2 h at 4°C
Protocol: (§1) Viral (whole virus) and bacterial NA activity as well as their inhibition were measured by using a fluorescence (FL) assay with the substrate 2′-(4-methylumbelliferyl)-α-D-N-acetylneuraminic acid sodium salt hydrate (MUNANA, 100 μM; Sigma-Aldrich GmbH, Taufkirchen, Germany), and/or a hemagglutination (HA)-based NA inhibition assay (HA assay) with human erythrocytes (Institute of Transfusion Medicine, University Hospital Jena, Jena, Germany), both assays as published recently (Richter et al., [2015]). Recombinant NanA (rNanA) and total precipitated bacterial protein of S. pneumoniae DSM20566 were used in FL and HA assays. Interference of the compounds with the FL signal (self-fluorescence and quenching) was excluded as described previously (Richter et al., [2015]). […] Each compound was tested at least three times in both NA inhibition assays.
Supplementary Table 1. Assay interference phenomena of test compounds in the HA-based […]
sample concentrations [µM] in viral HA-assay bacterial HA-assay […]
hem- prevention of erythrocyte hem- erythrocyte agglutinationa virus-induced lysisc agglutinationd lysise […]
cTest compounds lysed the human erythrocytes (2 h at 4°C). […]

[7] = system: S. pneumoniae DSM20566; experiment: Microtiter broth microdilution assay, planktonic growth; format: cell-based, Streptococcus pneumoniae DSM20566; details: 18 h, maximum 50 μM
[8] = system: IAV 5258/09 NA; experiment: Hemagglutination (HA)-based NA inhibition assay, IAV 5258/09; format: cell-based, influenza A virus A/Jena/5258/2009 (H1N1); details: human erythrocytes
[9] = system: human erythrocytes; format: cell-based; details: human erythrocytes, 4 h at 37°C and 12 h at 4°C
Protocol: as §1
Supplementary Table 1. […]
eTest compounds lysed the human erythrocytes (4 h at 37°C and 12 h at 4°C).

[10] = system: influenza A virus WSN/33; experiment: microbe, parasite or virus in culture; format: cell-based, influenza A virus A/WSN/1933 (H1N1)
[11] = molecular target: T1, S. pneumoniae DSM20566 NA (NanA) (Streptococcus pneumoniae, UniProt P62575); experiment: FL NA inhibition assay, S. pneumoniae DSM20566; format: biochemical; details: MUNANA substrate; for IC50: read-out: NA inhibition using FL assay IC50, S. p. DSM20566
T1 construct: host or cells: either rNanA from E. coli BL21(DE3) or total precipitated protein of S. pneumoniae DSM20566
T1 sequence (P62575 54-1035): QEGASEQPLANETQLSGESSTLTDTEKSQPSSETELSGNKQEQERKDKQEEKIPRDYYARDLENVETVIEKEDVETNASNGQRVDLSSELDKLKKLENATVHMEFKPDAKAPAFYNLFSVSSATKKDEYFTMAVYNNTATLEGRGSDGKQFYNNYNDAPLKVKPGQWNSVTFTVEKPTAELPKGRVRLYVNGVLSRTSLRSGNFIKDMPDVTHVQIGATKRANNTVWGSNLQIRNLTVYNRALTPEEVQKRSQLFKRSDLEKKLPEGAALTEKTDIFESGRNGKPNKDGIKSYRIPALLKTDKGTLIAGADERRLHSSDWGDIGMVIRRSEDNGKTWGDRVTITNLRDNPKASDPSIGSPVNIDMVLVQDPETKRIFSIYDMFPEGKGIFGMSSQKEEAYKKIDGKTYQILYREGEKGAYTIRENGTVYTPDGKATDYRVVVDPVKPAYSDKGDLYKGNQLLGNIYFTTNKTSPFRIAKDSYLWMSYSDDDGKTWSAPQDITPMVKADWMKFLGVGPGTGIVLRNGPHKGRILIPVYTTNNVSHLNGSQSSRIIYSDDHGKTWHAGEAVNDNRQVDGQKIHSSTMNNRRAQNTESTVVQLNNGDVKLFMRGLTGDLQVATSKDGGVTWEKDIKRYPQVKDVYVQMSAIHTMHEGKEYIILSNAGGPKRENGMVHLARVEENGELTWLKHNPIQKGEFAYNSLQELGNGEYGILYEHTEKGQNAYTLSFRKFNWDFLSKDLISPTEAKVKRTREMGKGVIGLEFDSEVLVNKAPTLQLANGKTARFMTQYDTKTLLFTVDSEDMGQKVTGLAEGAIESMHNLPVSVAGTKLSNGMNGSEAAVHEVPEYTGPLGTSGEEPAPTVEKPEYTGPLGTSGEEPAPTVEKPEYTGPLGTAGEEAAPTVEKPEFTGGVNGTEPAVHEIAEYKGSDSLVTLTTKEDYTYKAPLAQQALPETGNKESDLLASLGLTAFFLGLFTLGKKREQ

[12] = in vitro; details: dog
[13] = molecular target: T2, S. pneumoniae DSM20566 NA (Streptococcus pneumoniae, UniProt P62575); experiment: HA-based NA inhibition assay, S. pneumoniae DSM20566; format: cell-based; details: human erythrocytes
T2 construct: host or cells: either rNanA from E. coli BL21(DE3) or total precipitated protein of S. pneumoniae DSM20566
T2 sequence (P62575 54-1035): as above

Sequence of IAV WSN/33 NA-wt (whole virus) (P03470 whole entry, looked up): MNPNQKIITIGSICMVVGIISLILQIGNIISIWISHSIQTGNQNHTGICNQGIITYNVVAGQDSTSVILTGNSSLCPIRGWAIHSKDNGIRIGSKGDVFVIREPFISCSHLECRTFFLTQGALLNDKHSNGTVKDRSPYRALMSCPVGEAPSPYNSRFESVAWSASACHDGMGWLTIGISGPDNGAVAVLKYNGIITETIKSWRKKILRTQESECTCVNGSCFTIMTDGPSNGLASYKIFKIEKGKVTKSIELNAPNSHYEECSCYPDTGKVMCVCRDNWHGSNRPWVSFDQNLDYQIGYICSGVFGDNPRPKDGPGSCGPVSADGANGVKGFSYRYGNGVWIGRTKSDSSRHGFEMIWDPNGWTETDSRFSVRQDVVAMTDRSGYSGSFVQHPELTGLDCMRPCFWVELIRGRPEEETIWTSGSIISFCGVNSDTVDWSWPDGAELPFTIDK

Row | SMILES | IC50 [1] [µM] | 50% inhibitory concentration, influenza A virus HK/68 [2] | NA inhibition using FL assay IC50, IAV HK/68 [3] | 50% inhibitory concentration, influenza A virus 8178/09 [4] | inhibition at 50 µM ([5]; Streptococcus pneumoniae, DSM20566, 50 μM, read-out: Inhibition of biofilm formation at the maximum tested concentration) [%] | sample concentrations provoking erythrocyte lysis, viral HA-assay [6] | IC50 ([7]; Streptococcus pneumoniae, DSM20566, read-out: 50% inhibitory concentration, S. pneumoniae DSM20566 planktonic growth) [µM] | NA inhibition using HA assay MIC, IAV 5258/09 [8] | sample concentrations provoking erythrocyte lysis, bacterial HA-assay [9] | 50% inhibitory concentration, influenza A virus WSN/33 [10] | IC50 [11] [µM] | CC50 [12] [µM] | NA inhibition using HA assay MIC, S. p. DSM20566 [13] | IC50 [3] [µM] | 50% inhibitory concentration, S. pneumoniae DSM20566 biofilm formation ([5]; 24 h, maximum 50 μM) | 50% inhibitory concentration, S. pneumoniae DSM20566 planktonic growth [7] | NA inhibition using FL assay IC50, IAV WSN/33 [1] | NA inhibition using FL assay IC50, S. p. DSM20566 [11] | IC50 ([5]; Streptococcus pneumoniae, DSM20566, 24 h, maximum 50 μM, read-out: 50% inhibitory concentration, S. pneumoniae DSM20566 biofilm formation) [µM]
1 | O=S(=O)(O)c1cc(S(=O)(=O)O)c2c(/N=N/c3cccc4ccccc34)c(O)ccc2c1 [Compound 16] | 44.3 ± 2.38 | Not active | Not active | Not active | 46 | no | 12 ± 6.81 | 31.60 ± 0.00 µM | no | Not active | 7.68 ± 0.98 | > 100 | 24.40 ± 12.47 µM | – | – | – | – | – | –
2 | O=S(=O)(O)c1ccc2c(/N=N/c3c(O)ccc4ccccc34)cccc2c1 [Compound 14] | 28.9 ± 6.9 | Not active | – | Not active | – | no | – | Not active^c | no | Not active | 5.74 ± 1.41 | > 100 | Not active^c | 83 ± 6.25 | Not active | Not active | – | – | –
3 | O=[N+]([O-])c1ccc(/N=N/c2c(O)c(S(=O)(=O)O)cc3cc(S(=O)(=O)O)ccc23)cc1 [Compound 12] | – | Not active | Not active | Not active | – | no | – | Not active | no | Not active | – | > 100 | Not active | – | Not active | Not active | Not active | Not active | –
4 | O=S(=O)(O)c1ccc(/N=N/c2ccc(/N=N/c3c(O)c(S(=O)(=O)O)cc4cc(S(=O)(=O)O)ccc34)cc2)cc1 [Compound 9] | 22.7 ± 2.91 | Not active | Not active | Not active | – | no | – | Not active | no | Not active | 32 ± 10.9 | > 100 | Not active | – | Not active | Not active | – | – | –
5 | O=[N+]([O-])c1cccc(/N=N/c2c(O)c(S(=O)(=O)O)cc3cc(S(=O)(=O)O)ccc23)c1 [Compound 13] | – | Not active | Not active | Not active | – | no | – | Not active | no | Not active | – | > 100 | Not active | – | Not active | Not active | Not active | Not active | –
6 | O=S(=O)(O)c1cc2cccc(S(=O)(=O)O)c2c(O)c1/N=N/c1ccccc1 [Compound 17] | – | Not active | Not active | Not active | – | no | – | Not active | no | Not active | – | > 100 | Not active | – | Not active | Not active | Not active | Not active | –
7 | O=S(=O)(O)c1cc(/N=N/c2c(O)ccc3ccccc23)c2c(S(=O)(=O)O)cccc2c1 [Compound 15] | 28.7 ± 3.3 | Not active | Not active | Not active | – | no | – | Not active^c | no | Not active | 46.8 ± 5.27 | > 100 | Not active^c | – | Not active | Not active | – | – | –
8 | O=S(=O)(O)c1ccc2c(/N=N/c3ccccc3)c(O)ccc2c1 [Compound 10] | – | Not active | Not active | Not active | – | no | – | Not active^c | no | Not active | 10.2 ± 1.35 | > 100 | Not active^c | – | Not active | Not active | Not active | – | –
9 | COc1cc(/N=N/c2ccc(S(=O)(=O)O)cc2)ccc1/N=N/c1c(O)ccc2cc(S(=O)(=O)O)ccc12 [Compound 8] | 6.51 ± 0.72 | Not active | Not active | Not active | – | no | – | Not active | no | Not active | 3.9 ± 0.51 | > 100 | Not active | – | Not active | Not active | – | – | –
10 | Cc1ccccc1/N=N/c1ccc(/N=N/c2c(O)ccc3cc(S(=O)(=O)O)cc(S(=O)(=O)O)c23)c(C)c1 [Compound 5] | – | Not active | – | Not active | – | no | – | 10.00 ± 0.00 µM | no | Not active | 0.97 ± 0.3 | > 100 | 2.44 ± 1.25 µM | 17.8 ± 3.25 | – | Not active | – | – | 42.2 ± 2.57
